Experimental data published in ChEMBL document CHEMBL6153018, “Macrocycles and macrocyclization in anticancer drug discovery: Important pieces of the puzzle” (Eur J Med Chem, 2024).
≈ marks a conversion by molar mass, not a printed value. Square brackets hold non-standard residues; d marks the D form. Peptide text beside a SMILES is read from it. Lys(Me2) = CN(C)CCCC[C@H](N)C(=O)O; NMeT = CN[C@H](C(=O)O)[C@@H](C)O; NMeA = CN[C@@H](C)C(=O)O

How the values were obtained:
[1] = in vitro; settings: human, Caco-2
[2] = in vitro; settings: dog, MDCK
[3] = physchem; settings: PBS buffer, pH 7.4

Row | Papp A→B at 1 h [1] [nm/s] | Papp A→B at 2 h [2] [nm/s] | solubility [3] [µM] | SMILES
1 | 8.3 | – | – | C[C@@H]1NC(=O)[C@H](CCCCN)NC(=O)[C@H](Cc2ccccc2)NC(=O)[C@H](Cc2ccc(O)cc2)NC(=O)[C@H](CO)NC1=O (cyclo(ASYFK))
2 | – | 5.93 | 880 (≈ 922 µg/mL) | CC(C)C[C@@H]1NC(=O)[C@H]([C@@H](C)O)N(C)C(=O)[C@H]2CCCN2C(=O)[C@H](CC(C)C)NC(=O)[C@H](C)N(C)C(=O)[C@H](CC(C)C)NC(=O)[C@H]([C@@H](C)O)N(C)C(=O)[C@H]2CCCN2C(=O)[C@H](CC(C)C)NC(=O)[C@H](C)N(C)C1=O (cyclo(L[NMeA]L[dP][NMeT]L[NMeA]L[dP][NMeT]))
3 | 55.5 | – | – | COC[C@@H]1NC(=O)[C@H](CC(N)=O)NC(=O)[C@H](CCCCN(C)C)NC(=O)[C@H](Cc2ccccc2)NC(=O)[C@H](Cc2ccc(OC)cc2)NC1=O (cyclo([Lys(Me2)]NS(Me)Y(Me)F))
